Results as given in patent publication EP4722201A1, “3-PHENYLISOXAZOLINE-5-CARBOXAMIDE COMPOUND, AND PREPARATION METHOD THEREFOR, HERBICIDAL COMPOSITION THEREOF AND USE THEREOF” (Jiangsu Flag Chemical Industry Co., Ltd, priority 2023, dated 2024).

Experiments:
Assay type in all cases: in vivo
Cyperus iria [1] = experiment: Indoor herbicide activity determination, post-emergence (stem and leaf spray at 2-4 leaf stage); conditions: 504 h, determined 21 days later, read-out: Inhibition rate of fresh weight, Cyperus iria; for inhibition at 60 g/ha: 60 g a.i./ha; for inhibition at 30 g/ha: 30 g a.i./ha
How it was run: (§1)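 Potted weeds in sandy nutrient soil (pH 6.1, 1% organic matter) were grown in a constant-temperature illuminated room to the 2-4 leaf stage, then given a stem-and-leaf spray. Plants went back to the culture room once the spray had dried in shade. At 21 days, fresh weight inhibition % was calculated relative to untreated control plants.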

Digitaria sanguinalis [2] = experiment: as above; conditions: 504 h, determined 21 days later, read-out: Inhibition rate of fresh weight, Digitaria sanguinalis; for inhibition at 60 g/ha: 60 g a.i./ha; for inhibition at 30 g/ha: 30 g a.i./ha
How it was run: as §1

Eclipta prostrata [3] = experiment: as above; conditions: 504 h, determined 21 days later, read-out: Inhibition rate of fresh weight, Eclipta prostrata; for inhibition at 60 g/ha: 60 g a.i./ha; for inhibition at 30 g/ha: 30 g a.i./ha
How it was run: as §1

Alopecurus japonicus = experiment: Indoor herbicide activity determination, Seed Treatment; pre-emergence (soil spray)
How it was run: (§2)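 Weed seeds were sown in 7 cm pots of sandy nutrient soil (pH 6.1, 1% organic matter), covered, bottom-watered and held 24 h in a constant-temperature illuminated room before the soil surface was sprayed in a traveling spray tower. Fresh-weight inhibition versus untreated plants was scored 21 days later.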

Alopecurus myosuroides = experiment: as above
How it was run: as §2

Eleusine indica = experiment: as above
How it was run: as §2

Leptochloa chinensis = experiment: as above
How it was run: as §2

Lolium multiflorum = experiment: as above
How it was run: as §2

Aegilops tauschii = experiment: as above; conditions: read-out: Herbicidal activities (inhibition rate) Aegilops tauschii; for inhibition at 60 g/ha: 60 g a.i./ha
How it was run: as §2

Cyperus iria [4] = experiment: as above; conditions: read-out: Herbicidal activities (inhibition rate) Cyperus iria; for inhibition at 60 g/ha: 60 g a.i./ha
How it was run: as §2

Digitaria sanguinalis [5] = experiment: as above; conditions: 60 g a.i./ha, read-out: Herbicidal activities (inhibition rate) Digitaria sanguinalis
How it was run: as §2

Eclipta prostrata [6] = experiment: as above; conditions: 60 g a.i./ha, read-out: Herbicidal activities (inhibition rate) Eclipta prostrata
How it was run: as §2

| SMILES | inhibition at 60 g/ha (Cyperus iria [1]) [%] | inhibition at 60 g/ha (Digitaria sanguinalis [2]) [%] | inhibition at 60 g/ha (Eclipta prostrata [3]) [%] | Herbicidal activities, Alopecurus japonicus (inhibition rate class) (Alopecurus japonicus; Dosage 240 g a.i./ha) | Herbicidal activities, Alopecurus myosuroides (inhibition rate class) (Alopecurus myosuroides; Dosage 240 g a.i./ha) | Herbicidal activities, Eleusine indica (inhibition rate class) (Eleusine indica; Dosage 240 g a.i./ha) | Herbicidal activities, Leptochloa chinensis (inhibition rate class) (Leptochloa chinensis; Dosage 240 g a.i./ha) | Herbicidal activities, Lolium multiflorum (inhibition rate class) (Lolium multiflorum; Dosage 240 g a.i./ha) | inhibition at 30 g/ha (Cyperus iria [1]) [%] | inhibition at 30 g/ha (Digitaria sanguinalis [2]) [%] | inhibition at 30 g/ha (Eclipta prostrata [3]) [%] | inhibition at 60 g/ha (Aegilops tauschii) [%] | inhibition at 60 g/ha (Cyperus iria [4]) [%] | inhibition at 60 g/ha (Digitaria sanguinalis [5]) [%] | inhibition at 60 g/ha (Eclipta prostrata [6]) [%] | Herbicidal activities, Eleusine indica (inhibition rate class) (Eleusine indica; Dosage 120 g a.i./ha) | Herbicidal activities, Leptochloa chinensis (inhibition rate class) (Leptochloa chinensis; Dosage 120 g a.i./ha) | other results |
| --- | --- | --- | --- | --- | --- | --- | --- | --- | --- | --- | --- | --- | --- | --- | --- | --- | --- | --- |
| O=C(N[C@H]1C[C@@H](C(=O)O)C1)C1(C(F)(F)F)CC(c2cccc(F)c2)=NO1 (relative stereo) [I-268] | 80 to 100 | 80 to 100 | 40 to 60 | A (A indicates that the inhibition rate was greater than or equal to 80% to 100%) | A (A indicates that the inhibition rate was greater than or equal to 80% to 100%) | A (A indicates that the inhibition rate was greater than or equal to 80% to 100%) | A (A indicates that the inhibition rate was greater than or equal to 80% to 100%) | A (A indicates that the inhibition rate was greater than or equal to 80% to 100%) | – | – | – | – | – | – | – | – | – | – |
| COC(=O)[C@H]1C[C@@H](NC(=O)C2(C(F)(F)F)CC(c3cccc(F)c3)=NO2)C1 (relative stereo) [I-270] | 80 to 100 | 80 to 100 | 40 to 60 | A (A indicates that the inhibition rate was greater than or equal to 80% to 100%) | A (A indicates that the inhibition rate was greater than or equal to 80% to 100%) | A (A indicates that the inhibition rate was greater than or equal to 80% to 100%) | A (A indicates that the inhibition rate was greater than or equal to 80% to 100%) | A (A indicates that the inhibition rate was greater than or equal to 80% to 100%) | – | – | – | – | – | – | – | – | – | – |
| COC(=O)[C@H]1C[C@@H](NC(=O)C2(C(C)(F)F)CC(c3cc(F)cc(F)c3)=NO2)C1 (relative stereo) [I-347] | 80 to 100 | 60 to 80 | 40 to 60 | A (A indicates that the inhibition rate was greater than or equal to 80% to 100%) | A (A indicates that the inhibition rate was greater than or equal to 80% to 100%) | A (A indicates that the inhibition rate was greater than or equal to 80% to 100%) | A (A indicates that the inhibition rate was greater than or equal to 80% to 100%) | A (A indicates that the inhibition rate was greater than or equal to 80% to 100%) | – | – | – | – | – | – | – | – | – | – |
| C=C(F)C1(C(=O)N[C@H]2C[C@@H](C(=O)OC)C2)CC(c2cc(F)cc(F)c2)=NO1 (relative stereo) [I-356] | 80 to 100 | 60 to 80 | 40 to 60 | A (A indicates that the inhibition rate was greater than or equal to 80% to 100%) | A (A indicates that the inhibition rate was greater than or equal to 80% to 100%) | A (A indicates that the inhibition rate was greater than or equal to 80% to 100%) | A (A indicates that the inhibition rate was greater than or equal to 80% to 100%) | A (A indicates that the inhibition rate was greater than or equal to 80% to 100%) | – | – | – | – | – | – | – | – | – | – |
| COC(=O)[C@@H]1CC[C@H](NC(=O)[C@@]2(C(F)(F)F)CC(c3cc(F)cc(F)c3)=NO2)C1 [CK3, reference compound] | – | – | – | – | – | – | – | – | 40 to 60 | 40 to 60 | < 20 | 40 to 60 | 40 to 60 | 60 to 80 | 60 to 80 | – | – | – |
| COC(=O)[C@H]1CC[C@@H](NC(=O)[C@@]2(C(F)(F)F)CC(c3cc(F)cc(F)c3)=NO2)C1 [CK4, reference compound] | – | – | – | – | – | – | – | – | 20 to 40 | 20 to 40 | < 20 | < 20 | 40 to 60 | < 20 | < 20 | – | – | – |
| C=CC1(C(=O)N[C@H]2C[C@@H](C(=O)O)C2)CC(c2cc(F)cc(F)c2)=NO1 (stereo partly shown) [I-1] | 80 to 100 | 80 to 100 | 60 to 80 | A (A indicates that the inhibition rate was greater than or equal to 80% to 100%) | A (A indicates that the inhibition rate was greater than or equal to 80% to 100%) | A (A indicates that the inhibition rate was greater than or equal to 80% to 100%) | A (A indicates that the inhibition rate was greater than or equal to 80% to 100%) | A (A indicates that the inhibition rate was greater than or equal to 80% to 100%) | – | – | – | – | – | – | – | – | – | inhibition at 120 g/ha (Aegilops tauschii; 120 g a.i./ha): 80 to 100%; inhibition at 120 g/ha (Cyperus iria [4]; 120 g a.i./ha): 80 to 100% |
| C=C[C@]1(C(=O)N[C@H]2C[C@@H](C(=O)OC)C2)CC(c2cc(F)cc(F)c2)=NO1 [I-4] | – | – | – | – | – | – | – | – | 80 to 100 | 80 to 100 | 60 to 80 | – | 80 to 100 | 80 to 100 | 80 to 100 | A (A indicates that the inhibition rate was greater than or equal to 80% to 100%) | A (A indicates that the inhibition rate was greater than or equal to 80% to 100%) | Herbicidal activities, Alopecurus japonicus (inhibition rate class) (Alopecurus japonicus; Dosage 120 g a.i./ha): A (A indicates that the inhibition rate was greater than or equal to 80% to 100%); Herbicidal activities, Alopecurus myosuroides (inhibition rate class) (Alopecurus myosuroides; Dosage 120 g a.i./ha): A (A indicates that the inhibition rate was greater than or equal to 80% to 100%); Herbicidal activities, Lolium multiflorum (inhibition rate class) (Lolium multiflorum; Dosage 120 g a.i./ha): A (A indicates that the inhibition rate was greater than or equal to 80% to 100%) |
| C=C[C@]1(C(=O)N[C@H]2C[C@@H](C(=O)OCC)C2)CC(c2cc(F)cc(F)c2)=NO1 [I-5] | – | – | – | – | – | – | – | – | 80 to 100 | 80 to 100 | 40 to 60 | 80 to 100 | 60 to 80 | 80 to 100 | – | A (A indicates that the inhibition rate was greater than or equal to 80% to 100%) | A (A indicates that the inhibition rate was greater than or equal to 80% to 100%) | Herbicidal activities, Alopecurus japonicus (inhibition rate class) (Alopecurus japonicus; Dosage 120 g a.i./ha): A (A indicates that the inhibition rate was greater than or equal to 80% to 100%); Herbicidal activities, Alopecurus myosuroides (inhibition rate class) (Alopecurus myosuroides; Dosage 120 g a.i./ha): A (A indicates that the inhibition rate was greater than or equal to 80% to 100%); Herbicidal activities, Lolium multiflorum (inhibition rate class) (Lolium multiflorum; Dosage 120 g a.i./ha): A (A indicates that the inhibition rate was greater than or equal to 80% to 100%) |
| C=C[C@]1(C(=O)N[C@H]2C=C[C@@H](C(=O)OCC(C)C)C2)CC(c2cc(F)cc(C(F)(F)F)c2)=NO1 [I-438] | – | – | – | – | – | – | – | – | 60 to 80 | 60 to 80 | 60 to 80 | – | 80 to 100 | – | 80 to 100 | A (A indicates that the inhibition rate was greater than or equal to 80% to 100%) | A (A indicates that the inhibition rate was greater than or equal to 80% to 100%) | – |
